Patent US12479847B2 (DANA-FARBER CANCER INSTITUTE, INC., priority 2019, dated 2025)

Experiments:
Assay in all cases: KINOMEscan (ScanMAX) kinase profiling
Type in all cases: binding
panel of 468 kinases [1] = biological target: T1, panel of 468 kinases (Homo sapiens, UniProt Q02763); conditions: TIE2; 1 μM; read-out: % control
T1 construct: purchased KINOMEscan (ScanMAX) service

panel of 468 kinases [2] = biological target: T2, panel of 468 kinases (Homo sapiens, UniProt P06241); conditions: FYN; 1 μM; read-out: % control
T2 construct: purchased KINOMEscan (ScanMAX) service

panel of 468 kinases [3] = biological target: T3, panel of 468 kinases (Homo sapiens, UniProt O94768); conditions: DRAK2; 1 μM; read-out: % control
T3 construct: purchased KINOMEscan (ScanMAX) service
T3 sequence (O94768 1-372): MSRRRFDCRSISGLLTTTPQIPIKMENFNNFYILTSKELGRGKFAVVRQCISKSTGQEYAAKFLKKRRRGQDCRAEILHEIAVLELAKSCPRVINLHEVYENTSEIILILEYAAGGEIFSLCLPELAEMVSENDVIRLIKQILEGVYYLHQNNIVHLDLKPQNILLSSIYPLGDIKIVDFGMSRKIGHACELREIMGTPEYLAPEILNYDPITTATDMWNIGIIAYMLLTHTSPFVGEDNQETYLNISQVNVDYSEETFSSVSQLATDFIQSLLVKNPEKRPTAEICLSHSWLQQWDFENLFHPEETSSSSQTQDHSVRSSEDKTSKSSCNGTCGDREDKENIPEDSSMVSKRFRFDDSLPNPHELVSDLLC

panel of 468 kinases [4] = biological target: T4, panel of 468 kinases (Homo sapiens, UniProt Q13555); conditions: CAMK2G; 1 μM; read-out: % control
T4 construct: purchased KINOMEscan (ScanMAX) service

panel of 468 kinases [5] = biological target: T5, panel of 468 kinases (Homo sapiens, UniProt Q9HBY8); conditions: SGK2; 1 μM; read-out: % control
T5 construct: purchased KINOMEscan (ScanMAX) service
T5 sequence (Q9HBY8 1-367): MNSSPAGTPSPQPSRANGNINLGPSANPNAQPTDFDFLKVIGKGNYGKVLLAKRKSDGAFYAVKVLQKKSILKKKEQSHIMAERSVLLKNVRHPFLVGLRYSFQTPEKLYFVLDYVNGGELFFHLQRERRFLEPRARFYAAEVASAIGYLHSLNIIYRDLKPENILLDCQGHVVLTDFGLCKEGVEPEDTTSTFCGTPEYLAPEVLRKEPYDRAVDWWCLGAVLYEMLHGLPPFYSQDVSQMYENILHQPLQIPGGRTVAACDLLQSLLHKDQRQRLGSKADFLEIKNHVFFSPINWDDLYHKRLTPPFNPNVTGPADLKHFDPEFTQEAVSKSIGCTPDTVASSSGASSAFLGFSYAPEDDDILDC

panel of 468 kinases [6] = biological target: T6, panel of 468 kinases (Homo sapiens, UniProt Q56UN5); conditions: YSK4; 1 μM; read-out: % control
T6 construct: purchased KINOMEscan (ScanMAX) service
T6 sequence (Q56UN5 1-1328): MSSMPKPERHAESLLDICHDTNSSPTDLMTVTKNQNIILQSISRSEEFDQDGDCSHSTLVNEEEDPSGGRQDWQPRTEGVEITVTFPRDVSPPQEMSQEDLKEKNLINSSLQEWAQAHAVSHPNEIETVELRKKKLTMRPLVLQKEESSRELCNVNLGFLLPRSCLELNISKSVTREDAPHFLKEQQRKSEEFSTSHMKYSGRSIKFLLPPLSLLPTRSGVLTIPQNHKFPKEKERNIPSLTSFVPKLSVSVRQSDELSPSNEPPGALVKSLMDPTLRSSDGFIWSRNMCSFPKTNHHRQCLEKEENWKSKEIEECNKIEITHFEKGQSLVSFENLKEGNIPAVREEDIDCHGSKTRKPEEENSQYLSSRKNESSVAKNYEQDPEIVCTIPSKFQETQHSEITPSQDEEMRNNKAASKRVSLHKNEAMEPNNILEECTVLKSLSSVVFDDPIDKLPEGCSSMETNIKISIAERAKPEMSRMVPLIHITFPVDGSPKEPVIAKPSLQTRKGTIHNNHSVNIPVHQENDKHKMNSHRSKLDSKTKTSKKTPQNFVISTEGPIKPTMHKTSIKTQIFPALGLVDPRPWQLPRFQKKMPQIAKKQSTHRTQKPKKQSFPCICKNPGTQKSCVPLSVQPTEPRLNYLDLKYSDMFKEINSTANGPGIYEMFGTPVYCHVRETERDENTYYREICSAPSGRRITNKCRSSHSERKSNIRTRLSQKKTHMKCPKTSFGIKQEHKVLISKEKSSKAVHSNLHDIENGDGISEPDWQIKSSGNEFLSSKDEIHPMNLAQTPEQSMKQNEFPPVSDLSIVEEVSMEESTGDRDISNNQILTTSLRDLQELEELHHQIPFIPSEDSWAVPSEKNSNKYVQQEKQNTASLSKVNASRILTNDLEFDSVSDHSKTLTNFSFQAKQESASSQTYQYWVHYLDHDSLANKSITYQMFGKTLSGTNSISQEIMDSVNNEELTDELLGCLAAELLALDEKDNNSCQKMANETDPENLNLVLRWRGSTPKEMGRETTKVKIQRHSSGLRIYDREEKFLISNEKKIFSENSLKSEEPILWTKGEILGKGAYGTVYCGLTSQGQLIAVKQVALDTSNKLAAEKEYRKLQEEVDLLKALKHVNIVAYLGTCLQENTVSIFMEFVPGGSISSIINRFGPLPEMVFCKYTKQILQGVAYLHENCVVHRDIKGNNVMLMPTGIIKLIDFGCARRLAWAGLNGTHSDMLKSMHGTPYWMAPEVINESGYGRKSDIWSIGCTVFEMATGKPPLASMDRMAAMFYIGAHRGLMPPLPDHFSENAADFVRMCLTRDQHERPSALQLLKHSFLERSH

panel of 468 kinases [7] = biological target: T7, panel of 468 kinases (Homo sapiens, UniProt P19784); conditions: CSNK2A2; 1 μM; read-out: % control
T7 construct: purchased KINOMEscan (ScanMAX) service

panel of 468 kinases [8] = biological target: T8, panel of 468 kinases (Homo sapiens, UniProt P68400); conditions: CSNK2A1; 1 μM; read-out: % control
T8 construct: purchased KINOMEscan (ScanMAX) service

panel of 468 kinases [9] = biological target: T9, panel of 468 kinases (Homo sapiens, UniProt P49336); conditions: CDK8; 1 μM; read-out: % control
T9 construct: purchased KINOMEscan (ScanMAX) service
T9 sequence (P49336 whole entry): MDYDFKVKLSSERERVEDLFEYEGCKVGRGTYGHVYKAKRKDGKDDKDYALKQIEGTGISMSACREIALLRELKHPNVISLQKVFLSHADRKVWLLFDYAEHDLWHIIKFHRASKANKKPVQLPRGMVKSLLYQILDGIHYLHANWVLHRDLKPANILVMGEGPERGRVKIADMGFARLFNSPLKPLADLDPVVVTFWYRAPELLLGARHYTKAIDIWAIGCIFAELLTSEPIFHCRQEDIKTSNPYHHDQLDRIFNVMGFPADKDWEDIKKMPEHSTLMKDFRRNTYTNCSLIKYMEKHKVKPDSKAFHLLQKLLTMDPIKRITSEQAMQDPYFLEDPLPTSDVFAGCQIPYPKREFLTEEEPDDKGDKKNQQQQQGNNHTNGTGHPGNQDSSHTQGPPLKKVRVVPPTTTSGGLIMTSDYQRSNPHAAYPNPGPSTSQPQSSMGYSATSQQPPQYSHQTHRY

T8 sequence (P68400 whole entry): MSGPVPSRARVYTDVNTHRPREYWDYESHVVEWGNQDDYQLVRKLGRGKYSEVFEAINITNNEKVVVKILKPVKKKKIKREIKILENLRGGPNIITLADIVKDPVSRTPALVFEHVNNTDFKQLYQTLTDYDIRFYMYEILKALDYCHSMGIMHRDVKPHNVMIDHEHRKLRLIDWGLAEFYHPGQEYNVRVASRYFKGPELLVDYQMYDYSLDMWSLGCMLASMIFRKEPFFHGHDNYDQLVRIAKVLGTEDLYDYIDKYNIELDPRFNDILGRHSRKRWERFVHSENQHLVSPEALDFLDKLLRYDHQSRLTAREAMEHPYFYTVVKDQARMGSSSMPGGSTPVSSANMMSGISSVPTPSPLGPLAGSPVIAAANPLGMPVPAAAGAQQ
T1 sequence (Q02763 23-1124): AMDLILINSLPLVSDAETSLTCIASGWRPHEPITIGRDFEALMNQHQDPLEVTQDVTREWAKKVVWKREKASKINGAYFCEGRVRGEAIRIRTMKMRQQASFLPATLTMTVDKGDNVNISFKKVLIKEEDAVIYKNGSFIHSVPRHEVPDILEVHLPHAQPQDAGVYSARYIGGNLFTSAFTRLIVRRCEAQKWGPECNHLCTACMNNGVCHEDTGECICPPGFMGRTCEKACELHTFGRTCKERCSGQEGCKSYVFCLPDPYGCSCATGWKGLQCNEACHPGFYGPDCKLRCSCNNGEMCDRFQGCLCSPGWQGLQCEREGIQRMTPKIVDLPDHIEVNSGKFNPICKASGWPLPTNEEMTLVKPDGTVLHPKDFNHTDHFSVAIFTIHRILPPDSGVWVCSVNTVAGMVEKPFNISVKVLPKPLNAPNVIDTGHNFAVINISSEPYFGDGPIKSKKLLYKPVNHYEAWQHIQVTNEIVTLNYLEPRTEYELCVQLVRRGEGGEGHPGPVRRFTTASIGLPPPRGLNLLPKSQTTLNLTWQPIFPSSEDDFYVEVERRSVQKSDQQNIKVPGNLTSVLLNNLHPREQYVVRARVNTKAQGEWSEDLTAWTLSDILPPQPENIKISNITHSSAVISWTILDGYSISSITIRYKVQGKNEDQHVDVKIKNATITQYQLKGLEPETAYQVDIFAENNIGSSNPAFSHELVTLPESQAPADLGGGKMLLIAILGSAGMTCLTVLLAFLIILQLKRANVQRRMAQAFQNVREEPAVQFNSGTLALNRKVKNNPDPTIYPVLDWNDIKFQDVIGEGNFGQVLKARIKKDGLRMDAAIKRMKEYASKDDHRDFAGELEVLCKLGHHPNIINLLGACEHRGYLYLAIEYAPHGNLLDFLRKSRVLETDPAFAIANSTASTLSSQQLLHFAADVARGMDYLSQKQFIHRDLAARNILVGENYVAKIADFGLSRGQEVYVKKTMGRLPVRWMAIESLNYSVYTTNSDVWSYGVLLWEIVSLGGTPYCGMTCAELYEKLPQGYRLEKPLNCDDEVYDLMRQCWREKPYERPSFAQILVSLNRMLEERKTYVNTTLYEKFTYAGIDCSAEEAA
T7 sequence (P19784 whole entry): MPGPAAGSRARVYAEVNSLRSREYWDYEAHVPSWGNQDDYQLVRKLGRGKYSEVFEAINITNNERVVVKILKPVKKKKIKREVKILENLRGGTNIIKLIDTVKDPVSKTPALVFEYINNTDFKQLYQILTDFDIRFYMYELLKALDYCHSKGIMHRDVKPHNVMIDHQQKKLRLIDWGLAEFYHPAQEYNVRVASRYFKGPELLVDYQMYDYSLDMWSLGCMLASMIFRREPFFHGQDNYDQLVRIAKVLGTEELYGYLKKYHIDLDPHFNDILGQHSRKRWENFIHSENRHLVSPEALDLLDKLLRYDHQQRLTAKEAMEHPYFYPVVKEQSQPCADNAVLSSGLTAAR
T2 sequence (P06241 whole entry): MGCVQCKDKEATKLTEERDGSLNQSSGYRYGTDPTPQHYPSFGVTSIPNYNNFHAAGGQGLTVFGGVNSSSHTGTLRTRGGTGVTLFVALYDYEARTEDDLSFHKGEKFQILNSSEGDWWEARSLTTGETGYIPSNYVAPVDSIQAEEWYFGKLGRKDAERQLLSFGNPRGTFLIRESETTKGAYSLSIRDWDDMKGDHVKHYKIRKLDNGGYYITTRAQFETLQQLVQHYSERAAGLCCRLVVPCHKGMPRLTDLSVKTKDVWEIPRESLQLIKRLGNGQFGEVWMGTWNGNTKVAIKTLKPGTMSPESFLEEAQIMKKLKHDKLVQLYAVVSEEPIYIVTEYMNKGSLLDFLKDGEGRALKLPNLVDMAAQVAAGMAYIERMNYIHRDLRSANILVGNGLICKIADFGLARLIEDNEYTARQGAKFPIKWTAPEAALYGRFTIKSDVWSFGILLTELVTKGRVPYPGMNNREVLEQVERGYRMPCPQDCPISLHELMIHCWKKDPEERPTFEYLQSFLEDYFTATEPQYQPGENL
T4 sequence (Q13555 whole entry): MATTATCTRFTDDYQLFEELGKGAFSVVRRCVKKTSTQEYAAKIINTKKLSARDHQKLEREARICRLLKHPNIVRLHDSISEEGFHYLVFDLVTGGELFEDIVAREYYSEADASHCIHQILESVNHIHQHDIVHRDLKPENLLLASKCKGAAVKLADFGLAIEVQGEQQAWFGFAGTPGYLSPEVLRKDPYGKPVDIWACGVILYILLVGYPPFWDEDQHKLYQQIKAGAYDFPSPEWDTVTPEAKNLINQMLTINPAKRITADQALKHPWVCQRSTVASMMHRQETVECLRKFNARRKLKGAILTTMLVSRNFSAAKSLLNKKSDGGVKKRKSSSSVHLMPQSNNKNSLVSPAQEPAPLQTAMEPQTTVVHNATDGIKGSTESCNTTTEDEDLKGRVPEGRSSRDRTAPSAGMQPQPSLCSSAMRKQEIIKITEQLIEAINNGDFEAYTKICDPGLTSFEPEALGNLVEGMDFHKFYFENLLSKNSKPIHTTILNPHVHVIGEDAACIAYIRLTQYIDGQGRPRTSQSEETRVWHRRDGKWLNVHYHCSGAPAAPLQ

| Compound | remaining binding at 1 µM (panel of 468 kinases [1]) | remaining binding at 1 µM (panel of 468 kinases [2]) | remaining binding at 1 µM (panel of 468 kinases [3]) | remaining binding at 1 µM (panel of 468 kinases [4]) | remaining binding at 1 µM (panel of 468 kinases [5]) | remaining binding at 1 µM (panel of 468 kinases [6]) | remaining binding at 1 µM (panel of 468 kinases [7]) | remaining binding at 1 µM (panel of 468 kinases [8]) | remaining binding at 1 µM (panel of 468 kinases [9]) |
| --- | --- | --- | --- | --- | --- | --- | --- | --- | --- |
| CNc1nc(Nc2ccc(S(=O)(=O)N3CCC(N4CCOCC4)CC3)cc2OC)nc2[nH]cc(Cl)c12 [Compound 12, 5-chloro-N2-(2-methoxy-4-((4-morpholinopiperidin-1-yl)sulfonyl)phenyl)-N4-methyl-7H-pyrrolo[2,3-d]pyrimidine-2,4-diamine] | 94% | 100% | 74% | 100% | 95% | 59% | 97% | 63% | 100% |
| CNc1nc(Nc2ccc(C(=O)N3CCC(N4CCOCC4)CC3)c3c2OCO3)nc2[nH]cc(Cl)c12 [Compound 75, (7-((5-chloro-4-(methylamino)-7H-pyrrolo[2,3-d]pyrimidin-2-yl)amino)benzo[d][1,3]dioxol-4-yl)(4-morpholinopiperidin-1-yl)methanone] | 94% | 100% | 3.9% | 100% | 37% | 0.25% | 49% | 24% | 100% |
| CNc1nc(Nc2ccc(P3(=O)CCN(C4CCOCC4)CC3)cc2OC)nc2[nH]cc(Cl)c12 [Compound 77, 4-(4-((5-chloro-4-(methylamino)-7H-pyrrolo[2,3-d]pyrimidin-2-yl)amino)-3-methoxyphenyl)-1-(tetrahydro-2H-pyran-4-yl)-1,4-azaphosphinane 4-oxide] | 100% | 95% | 39% | 97% | 87% | 4.2% | 80% | 59% | 91% |
